Laboratory results: patent US20260232767A1, “INTERLEUKIN-23 RECEPTOR ANTAGONIST PEPTIDES FOR USE IN THE TREATMENT OF PSORIASIS” (Janssen Pharmaceutica NV, priority 2023, published 2026)

Assays:
Format in all cases: in vivo, human
[1] = tested on: subjects with moderate-to-severe plaque psoriasis; experiment: PSSD symptom and sign scores, Example 2
From the text: Secondary endpoints included additional change from baseline of Example 1 in PASI, IGA, and PSSD at Week 52, including the proportions of subjects that achieved PAST 90, PAST 100, an IGA score of cleared (0) or minimal (1), PSSD symptoms score=0, and PSSD signs score=0.

[2] = tested on: subjects with moderate-to-severe plaque psoriasis; experiment: Lipid panel laboratory values; conditions: Week 52
[3] = tested on: subjects with moderate-to-severe plaque psoriasis; experiment: Treatment disposition, Example 2
[4] = 25 mg BID, Week 16 to Week 52, N=40
[5] = 25 mg BID, through Week 52, N=41
[6] = 25 mg QD, Week 16 to Week 52, N=35
[7] = 25 mg QD, through Week 52, N=43
[8] = 50 mg QD, through Week 52, N=43
[9] = 100 mg BID, through Week 52, N=42
[10] = 100 mg QD, Week 16 to Week 52, N=40
[11] = 100 mg QD, through Week 52, N=43
[12] = Combined, Week 16 to Week 52, N=227
[13] = Combined, through Week 52, N=247

Compound: CC(=O)NCCCC[C@@H]1NC(=O)[C@H](Cc2c[nH]c3c(C)cccc23)NC(=O)[C@H]([C@@H](C)O)NC(=O)[C@H](CC(N)=O)NC(=O)[C@@H](NC(C)=O)C(C)(C)SSC(C)(C)[C@@H](C(=O)N[C@@H](Cc2ccc(OCCN)cc2)C(=O)N[C@@H](Cc2ccc3ccccc3c2)C(=O)NC2(C(=O)N[C@@H](CCC(=O)O)C(=O)N[C@@H](CC(N)=O)C(=O)N[C@@H](Cc3cccnc3)C(=O)N(C)CC(N)=O)CCOCC2)NC1=O [IL-23 receptor antagonist peptide, Ac-[Pen]*-N-T-[W(7-Me)]-[Lys(Ac)]-[Pen]*-Phe[4-(2-aminoethoxy)]-[2-Nal]-[THP]-E-N-[3-Pal]-Sarc-NH2 (*[Pen]-[Pen]* formdisulfidebond)]
- Subjects Achieving PSSD Sign Score 0 at Week 52 ([1]; 50 mg QD, Subjects w/Baseline PSSD Sign Score ≥1 (Table 26, second block)): 5 (11.6%)
- Subjects achieving PSSD Sign Score = 0 at Week 52 ([1]; 100 mg QD, subjects with Baseline PSSD Sign Score ≥1): 6 (14.0%)
- HDL Cholesterol change from baseline, Mean ([2]; 25 mg BID): 0.011 mmol/L
- HDL Cholesterol change from baseline, Median ([2]; 25 mg BID): -0.010 mmol/L
- LDL Cholesterol change from baseline, Mean ([2]; 25 mg BID): -0.155 mmol/L
- LDL Cholesterol change from baseline, Median ([2]; 25 mg BID): -0.105 mmol/L
- Triglycerides change from baseline, Mean ([2]; 25 mg BID): 0.144 mmol/L
- Triglycerides change from baseline, Median ([2]; 25 mg BID): 0.040 mmol/L
- HDL Cholesterol change from baseline, Mean ([2]; 25 mg QD): -0.034 mmol/L
- HDL Cholesterol change from baseline, Median ([2]; 25 mg QD): -0.023 mmol/L
- LDL Cholesterol change from baseline, Mean ([2]; 25 mg QD): 0.069 mmol/L
- LDL Cholesterol change from baseline, Median ([2]; 25 mg QD): 0.132 mmol/L
- Triglycerides change from baseline, Mean ([2]; 25 mg QD): 0.034 mmol/L
- Triglycerides change from baseline, Median ([2]; 25 mg QD): 0.040 mmol/L
- HDL Cholesterol change from baseline, Mean ([2]; 50 mg QD): -0.009 mmol/L
- HDL Cholesterol change from baseline, Median ([2]; 50 mg QD): 0.014 mmol/L
- LDL Cholesterol change from baseline, Mean ([2]; 50 mg QD): -0.146 mmol/L
- LDL Cholesterol change from baseline, Median ([2]; 50 mg QD): -0.095 mmol/L
- Triglycerides change from baseline, Mean ([2]; 50 mg QD): 0.156 mmol/L
- Triglycerides change from baseline, Median ([2]; 50 mg QD): 0.067 mmol/L
- HDL Cholesterol change from baseline, Mean ([2]; 100 mg BID): -0.027 mmol/L
- HDL Cholesterol change from baseline, Median ([2]; 100 mg BID): -0.020 mmol/L
- LDL Cholesterol change from baseline, Mean ([2]; 100 mg BID): -0.056 mmol/L
- LDL Cholesterol change from baseline, Median ([2]; 100 mg BID): -0.110 mmol/L
- Triglycerides change from baseline, Mean ([2]; 100 mg BID): 0.137 mmol/L
- Triglycerides change from baseline, Median ([2]; 100 mg BID): 0.010 mmol/L
- HDL Cholesterol change from baseline, Mean ([2]; 100 mg QD): -0.023 mmol/L
- HDL Cholesterol change from baseline, Median ([2]; 100 mg QD): -0.027 mmol/L
- LDL Cholesterol change from baseline, Mean ([2]; 100 mg QD): -0.147 mmol/L
- LDL Cholesterol change from baseline, Median ([2]; 100 mg QD): -0.060 mmol/L
- Triglycerides change from baseline, Mean ([2]; 100 mg QD): 0.024 mmol/L
- Triglycerides change from baseline, Median ([2]; 100 mg QD): -0.005 mmol/L
- HDL Cholesterol change from baseline, Mean ([2]; Combined): -0.012 mmol/L
- HDL Cholesterol change from baseline, Median ([2]; Combined): -0.020 mmol/L
- LDL Cholesterol change from baseline, Mean ([2]; Combined): -0.098 mmol/L
- LDL Cholesterol change from baseline, Median ([2]; Combined): -0.105 mmol/L
- Triglycerides change from baseline, Mean ([2]; Combined): 0.118 mmol/L
- Triglycerides change from baseline, Median ([2]; Combined): 0.020 mmol/L
- HDL Cholesterol change from baseline, Mean ([2]; Placebo → 100 mg QD): 0.013 mmol/L
- HDL Cholesterol change from baseline, Median ([2]; Placebo → 100 mg QD): -0.035 mmol/L
- LDL Cholesterol change from baseline, Mean ([2]; Placebo → 100 mg QD): -0.138 mmol/L
- LDL Cholesterol change from baseline, Median ([2]; Placebo → 100 mg QD): -0.212 mmol/L
- Triglycerides change from baseline, Mean ([2]; Placebo → 100 mg QD): 0.207 mmol/L
- Triglycerides change from baseline, Median ([2]; Placebo → 100 mg QD): 0.035 mmol/L
- Discontinued: Adverse Event, % [3, 4]: (2.5%)
- Discontinued: Other Adverse Event, % [3, 4]: (2.5%)
- Discontinued: Adverse Event, % [3, 5]: (2.4%)
- Discontinued: Other Adverse Event, % [3, 5]: (2.4%)
- Discontinued: Adverse Event, % [3, 6]: (2.9%)
- Discontinued: Other Adverse Event, % [3, 6]: (2.9%)
- Discontinued: Adverse Event, % [3, 7]: (7.0%)
- Discontinued: Other Adverse Event, % [3, 7]: (7.0%)
- Discontinued: Adverse Event, % [3, 8]: (4.7%)
- Discontinued: Other Adverse Event, % [3, 8]: (4.7%)
- Discontinued: Adverse Event, % [3, 9]: (2.4%)
- Discontinued: Other Adverse Event, % [3, 9]: (2.4%)
- Discontinued: Adverse Event, % [3, 10]: (2.5%)
- Discontinued: Other Adverse Event, % [3, 10]: (2.5%)
- Discontinued: Adverse Event, % [3, 11]: (4.7%)
- Discontinued: Other Adverse Event, % [3, 11]: (4.7%)
- Discontinued: Adverse Event, % [3, 12]: (1.3%)
- Discontinued: Other Adverse Event, % [3, 12]: (1.3%)
- Discontinued: Adverse Event, % [3, 13]: (3.6%)
- Discontinued: Other Adverse Event, % [3, 13]: (3.6%)
